The record followed here is ChEMBL document CHEMBL1135235, “Structure-activity relationships of oxime neurokinin antagonists: oxime modifications” (Bioorg Med Chem Lett, 2002).

pKi: −log10 of the molar value.

Data set [1] concerns the target T1, Substance-P receptor (Homo sapiens, UniProt P25103). As to the kind of experiment: The compound was evaluated for the binding affinity against recombinant human Tachykinin receptor 1 in CHO cells using [3H]-Sar SP as a radioligand. To be noted: concentration not given here. Format: cell-based.
Data set [2] concerns the target T2, Substance-K receptor (Homo sapiens) (UniProt P21452).
T2 sequence (whole entry): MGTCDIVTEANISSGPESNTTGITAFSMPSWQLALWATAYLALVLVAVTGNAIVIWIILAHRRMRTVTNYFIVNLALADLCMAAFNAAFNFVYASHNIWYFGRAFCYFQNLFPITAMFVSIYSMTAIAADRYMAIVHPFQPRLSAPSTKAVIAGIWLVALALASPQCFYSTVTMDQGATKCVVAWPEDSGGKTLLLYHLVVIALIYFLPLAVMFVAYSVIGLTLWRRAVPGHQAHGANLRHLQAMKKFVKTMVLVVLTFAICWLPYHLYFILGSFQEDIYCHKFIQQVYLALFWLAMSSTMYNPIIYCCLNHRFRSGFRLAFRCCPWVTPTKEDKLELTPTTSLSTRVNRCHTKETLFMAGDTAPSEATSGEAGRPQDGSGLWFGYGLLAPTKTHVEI
As to the kind of experiment: (§1) Binding affinity against recombinant human tachykinin receptor 2 in CHO cells using [3H]NKA as a radioligand. On the set-up: concentration or dose not given beside the values. To be noted: concentration not given here. Format: cell-based.

The nature of data set [3]: Area under curve was determined at a dose 30 mpk administered orally. Format: ADME, organism-based. To be noted: rat, in vivo, po, 30 mg/kg.
For data set [4], the target named is T3, Substance-K receptor (Cavia porcellus) (UniProt Q64077).
T3 sequence (whole entry): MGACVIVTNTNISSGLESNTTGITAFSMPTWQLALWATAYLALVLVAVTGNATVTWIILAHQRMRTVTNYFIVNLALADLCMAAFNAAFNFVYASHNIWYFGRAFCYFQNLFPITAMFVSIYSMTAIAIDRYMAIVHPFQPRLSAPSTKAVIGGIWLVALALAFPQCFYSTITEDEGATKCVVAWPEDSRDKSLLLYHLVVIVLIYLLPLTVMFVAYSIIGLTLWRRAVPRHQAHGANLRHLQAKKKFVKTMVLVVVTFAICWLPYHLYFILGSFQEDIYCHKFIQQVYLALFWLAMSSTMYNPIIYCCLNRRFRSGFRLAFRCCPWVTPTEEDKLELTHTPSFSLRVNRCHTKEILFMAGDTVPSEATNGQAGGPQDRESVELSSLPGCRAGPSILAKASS
As to the kind of experiment: Inhibitory activity against Tachykinin receptor 2 evaluated as beta-ala-NKA (410) induced bronchospasm inhibition after a oral dose of 10 mpk in guinea pig. Format: functional.

Data set [5] has as its target T1, Substance-P receptor. As to the kind of experiment: Binding affinity against recombinant human tachykinin receptor 1 in CHO cells using [3H]-Sar SP as a radioligand. It is filed as cell-based.
The target in data set [6] is T4, Substance-K receptor (Homo sapiens, UniProt P21452).
T4 sequence (P21452 whole entry): T2 sequence (whole entry)
The description is as §1. Format: cell-based.

T1 sequence (P25103 whole entry): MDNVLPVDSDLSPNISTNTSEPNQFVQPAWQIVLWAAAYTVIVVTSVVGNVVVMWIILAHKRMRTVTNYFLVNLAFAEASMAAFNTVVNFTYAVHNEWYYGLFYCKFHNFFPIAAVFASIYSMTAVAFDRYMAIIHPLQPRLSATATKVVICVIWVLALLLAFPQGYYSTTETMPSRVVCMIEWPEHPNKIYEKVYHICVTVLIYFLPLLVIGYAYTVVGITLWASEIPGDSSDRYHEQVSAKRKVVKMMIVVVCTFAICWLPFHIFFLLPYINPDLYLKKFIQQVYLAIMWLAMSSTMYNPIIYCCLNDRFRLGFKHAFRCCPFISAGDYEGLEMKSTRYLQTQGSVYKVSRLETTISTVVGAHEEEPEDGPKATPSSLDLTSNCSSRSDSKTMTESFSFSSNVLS

Take `OC1(c2ccccc2)CCN(CCC(/C(COCc2cc(C(F)(F)F)cc(C(F)(F)F)c2)=N/Oc2ccccc2)c2ccc(Cl)c(Cl)c2)CC1` (stereo not drawn): the inhibition in data set [1] came out at 32%; in data set [2] it was 23%.
In the same order, the values of `CC(C)(C)O/N=C(\COCc1cc(C(F)(F)F)cc(C(F)(F)F)c1)C(CCN1CCC(O)(c2ccccc2)CC1)c1ccc(Cl)c(Cl)c1` (stereo not drawn) are 46% and 28%.
`CN(C/C(=N\OCC(=N)NO)C(CCN1CCC(N2CCCCC2=O)CC1)c1ccc(Cl)c(Cl)c1)C(=O)c1cc(Cl)cc(Cl)c1` (stereo not drawn) displayed an AUC in data set [3] of 3 µM·h. The inhibition in data set [4] was determined as 94%. For the same compound, the pKi in data set [5] and in data set [6] was 9.15 throughout.
